# Target: T1, human RXFP1 (Homo sapiens, UniProt Q9HBX9)
# T1 construct: expressed in transfected cells
# T1 sequence (Q9HBX9 1-757): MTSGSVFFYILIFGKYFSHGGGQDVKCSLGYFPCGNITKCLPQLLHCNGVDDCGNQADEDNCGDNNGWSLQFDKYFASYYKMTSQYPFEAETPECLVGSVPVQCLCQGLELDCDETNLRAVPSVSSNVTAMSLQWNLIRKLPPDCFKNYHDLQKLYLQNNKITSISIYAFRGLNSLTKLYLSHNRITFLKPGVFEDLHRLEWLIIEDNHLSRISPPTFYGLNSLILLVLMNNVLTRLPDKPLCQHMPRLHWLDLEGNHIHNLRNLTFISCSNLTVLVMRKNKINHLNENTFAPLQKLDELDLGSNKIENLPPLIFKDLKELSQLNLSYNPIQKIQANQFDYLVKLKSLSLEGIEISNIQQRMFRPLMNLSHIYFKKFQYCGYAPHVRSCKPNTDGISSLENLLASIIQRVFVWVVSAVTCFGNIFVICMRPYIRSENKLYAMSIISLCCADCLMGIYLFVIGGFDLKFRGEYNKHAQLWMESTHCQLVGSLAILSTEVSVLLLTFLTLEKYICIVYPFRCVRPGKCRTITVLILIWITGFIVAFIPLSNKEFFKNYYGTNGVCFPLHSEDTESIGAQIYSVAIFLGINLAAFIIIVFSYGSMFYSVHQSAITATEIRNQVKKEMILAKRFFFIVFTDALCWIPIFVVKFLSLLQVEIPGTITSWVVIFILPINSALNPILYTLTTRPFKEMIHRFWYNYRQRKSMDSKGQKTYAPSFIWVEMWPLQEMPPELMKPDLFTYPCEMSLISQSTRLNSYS
# Assay: hRXFP1 HEK293 cAMP assay (HTRF)
# Assay type: cell-based
# Details: HEK293 cells stably expressing human RXFP1; phenylcyclobutane examples
# Method: RXFP1 Cyclic Adenosine Monophosphate (cAMP) Assays. Human embryonic kidney cells 293 (HEK293) cells and HEK293 cells stably expressing human RXFP1, were cultured in MEM medium supplemented with 10% qualified FBS, and 300 μg/ml hygromycin (Life Technologies). Cells were dissociated and suspended in assay buffer. The assay buffer was HBSS buffer (with calcium and magnesium) containing 20 mM HEPES, 0.05% BSA, and 0.5 mM IBMX. Cells (3000 cells per well, except 1500 cell per well for HEK293 cells stably expressing human RXFP1) were added to 384-well Proxiplates (Perkin-Elmer). Cells were immediately treated with test compounds in DMSO (2% final) at final concentrations in the range of 0.010 nM to 50 μM. Cells were incubated for 30 min at room temperature. The level of intracellular cAMP was determined using the HTRF HiRange cAMP assay reagent kit (Cisbio) according to manufacturer's instructions. Solutions of cryptate conjugated anti-cAMP and d2 fluorophore-labelled cAMP were made in a supplied lysis buffer separately. Upon completion of the reaction, the cells were lysed with equal volume of the d2-cAMP solution and anti-cAMP solution. After a 1 h room temperature incubation, time-resolved fluorescence intensity was measured using the Envision (Perkin-Elmer) at 400 nm excitation and dual emission at 590 nm and 665 nm. A calibration curve was constructed with an external cAMP standard at concentrations ranging from 2.7 μM to 0.1 μM by plotting the fluorescent intensity ratio from 665 nm emission to the intensity from the 590 nm emission against cAMP concentrations. The potency and activity of a compound to […] cAMP production was then determined by fitting to a 4-parametric logistic equation from a plot of cAMP level versus compound concentrations.
# The examples disclosed below were tested in the human RXFP1 (hRXFP1) HEK293 cAMP assay described above and found to have agonist activity. Tables 1-3, lists EC50 values in the hRXFP1 HEK293 cAMP assay measured for the examples.
row,EC50 [nM],SMILES
1,660,"COc1ccc(-c2cc(C(O)C(=O)O)ccc2F)cc1C(=O)Nc1cc2c(cc1C(=O)Nc1ccc(F)c(C(F)(F)F)c1)CC2 (stereo not drawn) [Example 23, 2-(6-fluoro-3′-((4-((4-fluoro-3-(trifluoromethyl)phenyl)carbamoyl)bicyclo[4.2.0]octa-1,3,5-trien-3-yl)carbamoyl)-4′-methoxy-[1,1′-biphenyl]-3-yl)-2-hydroxyacetic acid]"
2,8,"COc1ccc(-c2cc(C(NC(=O)C3CCOCC3)C(=O)O)ccc2F)cc1C(=O)Nc1cc2c(cc1C(=O)Nc1ccc(F)c(C(F)(F)F)c1)CC2 (stereo not drawn) [Example 22, 2-(6-fluoro-3′-((4-((4-fluoro-3-(trifluoromethyl)phenyl)carbamoyl)bicyclo[4.2.0]octa-1,3,5-trien-3-yl)carbamoyl)-4′-methoxy-[1,1′-biphenyl]-3-yl)-2-(tetrahydro-2H-pyran-4-carboxamido)acetic acid]"
3,2400,COc1ccc(-c2cc(C(=O)O)ccc2F)cc1C(=O)Nc1cc2c(cc1C(=O)Nc1ccc(F)c(C(F)(F)F)c1)CC2 [Example 21]

# Same assay, conditions: HEK293 cells stably expressing human RXFP1; phenylcyclohexyl (tetraline) examples
row,SMILES,EC50 [nM]
1,"COc1ccc(C2=NOC3CC(CO)CC23)cc1C(=O)Nc1cc2c(cc1C(=O)Nc1ccc(F)c(C(F)(F)F)c1)CCCC2 (single isomer, unassigned) [Example 13, N-(4-fluoro-3-(trifluoromethyl)phenyl)-3-(5-(5-(hydroxymethyl)-3a,5,6,6a-tetrahydro-4H-cyclopenta[d]-isoxazol-3-yl)-2-methoxybenzamido)-5,6,7,8-tetrahydronaphthalene-2-carboxamide]",19
2,"COc1ccc(-c2cc([C@H](OC(=O)NC3CCC3)C(F)(F)F)ccc2F)cc1C(=O)Nc1cc2c(cc1C(=O)Nc1ccc(F)c(C(F)(F)F)c1)CCCC2 [Example 6, (S)-2,2,2-trifluoro-1-(6-fluoro-3′-((3-((4-fluoro-3-(trifluoromethyl)phenyl)carbamoyl)-5,6,7,8-tetrahydronaphthalen-2-yl)carbamoyl)-4′-methoxy-[1,1′-biphenyl]-3-yl)ethyl cyclobutylcarbamate]",15
3,"COc1ccc(-c2noc(CCO)c2CCO)cc1C(=O)Nc1cc2c(cc1C(=O)Nc1ccc(F)c(C(F)(F)F)c1)CCCC2 [Example 16, 3-(5-(4,5-bis(2-hydroxyethyl)isoxazol-3-yl)-2-methoxybenzamido)-N-(4-fluoro-3-(trifluoromethyl)phenyl)-5,6,7,8-tetrahydronaphthalene-2-carboxamide]",5000
4,"COc1ccc(C2=NOC3CC(CO)CC23)cc1C(=O)Nc1cc2c(cc1C(=O)Nc1ccc(F)c(C(F)(F)F)c1)CCCC2 (stereo not drawn) [Example 12, N-(4-fluoro-3-(trifluoromethyl)phenyl)-3-(5-(5-(hydroxymethyl)-3a,5,6,6a-tetrahydro-4H-cyclopenta[d]-isoxazol-3-yl)-2-methoxybenzamido)-5,6,7,8-tetrahydronaphthalene-2-carboxamide]",290
5,"COc1ccc(C2=NOC3CC(CO)CC23)cc1C(=O)Nc1cc2c(cc1C(=O)Nc1ccc(F)c(C(F)(F)F)c1)CCCC2 (single isomer, unassigned) [Example 14, N-(4-fluoro-3-(trifluoromethyl)phenyl)-3-(5-(5-(hydroxymethyl)-3a,5,6,6a-tetrahydro-4H-cyclopenta[d]-isoxazol-3-yl)-2-methoxybenzamido)-5,6,7,8-tetrahydronaphthalene-2-carboxamide]",82
6,"COc1ccc(-c2cc(C(=O)O)ccc2F)cc1C(=O)Nc1cc2c(cc1C(=O)Nc1ccc(F)c(C(F)(F)F)c1)CCCC2 [Example 1, 6-fluoro-3′-((3-((4-fluoro-3-(trifluoromethyl)phenyl)carbamoyl)-5,6,7,8-tetrahydronaphthalen-2-yl)carbamoyl)-4′-methoxy-[1,1′-biphenyl]-3-carboxylic acid]",390
7,"COc1ccc(-c2cc(C(NC(=O)C3CCOCC3)C(=O)O)ccc2F)cc1C(=O)Nc1cc2c(cc1C(=O)Nc1ccc(F)c(C(F)(F)F)c1)CCCC2 (single isomer, unassigned) [Example 2, 2-(6-fluoro-3′-((3-((4-fluoro-3-(trifluoromethyl)phenyl)carbamoyl)-5,6,7,8-tetrahydro-naphthalen-2-yl)carbamoyl)-4′-methoxy-[1,1′-biphenyl]-3-yl)-2-(tetrahydro-2H-pyran-4-carboxamido)acetic acid]",1.8
8,"COc1ccc(-c2cc(C(N)C(=O)O)ccc2F)cc1C(=O)Nc1cc2c(cc1C(=O)Nc1ccc(F)c(C(F)(F)F)c1)CCCC2 (single isomer, unassigned) [Example 3, 2-amino-2-(6-fluoro-3′-((3-((4-fluoro-3-(trifluoromethyl)phenyl)carbamoyl)-5,6,7,8-tetrahydronaphthalen-2-yl)carbamoyl)-4′-methoxy-[1,1′-biphenyl]-3-yl)acetic acid]",2300
9,"COc1ccc(-c2cc(C(=O)NCC3CCC3)ccc2F)cc1C(=O)Nc1cc2c(cc1C(=O)Nc1ccc(F)c(C(F)(F)F)c1)CCCC2 [Example 8, N3′-(cyclobutyl-methyl)-6′-fluoro-N3-(3-((4-fluoro-3-(trifluoromethyl)phenyl)carbamoyl)-5,6,7,8-tetrahydro-naphthalen-2-yl)-4-methoxy-[1,1′-biphenyl]-3,3′-dicarboxamide]",4200

# Further lines, results first:
row,EC50 [nM],SMILES
1,22,"COc1ccc(-c2cc([C@H](OC(=O)NC3CCC3)C(F)(F)F)ccc2F)cc1C(=O)Nc1cc2c(cc1C(=O)Nc1ccc(F)c(C(F)(F)F)c1)CCCC2=O [Example 17, (S)-2,2,2-trifluoro-1-(6-fluoro-3′-((3-(4-fluoro-3-(trifluoromethyl)phenyl)carbamoyl)-8-oxo-5,6,7,8-tetrahydronaphthalen-2-yl)carbamoyl)-4′-methoxy-[1,1′-biphenyl]-3-yl)ethyl cyclobutylcarbamate]"
2,1100,"COc1ccc(-c2cc(C(=O)O)ccc2F)cc1C(=O)Nc1cc2c(cc1C(=O)Nc1ccc(F)c(C(F)(F)F)c1)CCCC2=O [Example 18, 6-fluoro-3′-((3-((4-fluoro-3-(trifluoromethyl)phenyl)carbamoyl)-8-oxo-5,6,7,8-tetrahydronaphthalen-2-yl)carbamoyl)-4′-methoxy-[1,1′-biphenyl]-3-carboxylic acid]"
3,1300,"COc1ccc(-c2cnn(CC(=O)O)c2)cc1C(=O)Nc1cc2c(cc1C(=O)Nc1ccc(F)c(C(F)(F)F)c1)CCCC2 [Example 19, 2-(4-(3-((3-((4-fluoro-3-(trifluoromethyl)phenyl)carbamoyl)-5,6,7,8-tetrahydronaphthalen-2-yl)carbamoyl)-4-methoxyphenyl)-1H-pyrazol-1-yl)acetic acid]"

# Same assay, conditions: HEK293 cells stably expressing human RXFP1; phenylcyclopentyl examples
row,EC50 [nM],SMILES
1,11,"COc1ccc(-c2cc(C(NC(=O)C3CCOCC3)C(=O)O)ccc2F)cc1C(=O)Nc1cc2c(cc1C(=O)Nc1ccc(F)c(C(F)(F)F)c1)CCC2 (stereo not drawn) [Example 25, 2-(6-fluoro-3′-((6-((4-fluoro-3-(trifluoromethyl)phenyl)carbamoyl)-2,3-dihydro-1H-inden-5-yl)carbamoyl)-4′-methoxy-[1,1′-biphenyl]-3-yl)-2-(tetrahydro-2H-pyran-4-carboxamido)acetic acid]"
2,230,"COc1ccc(-c2cc(C(=O)O)ccc2F)cc1C(=O)Nc1cc2c(cc1C(=O)Nc1ccc(F)c(C(F)(F)F)c1)CCC2=O [Example 26, 6-fluoro-3′-((6-((4-fluoro-3-(trifluoromethyl)phenyl)carbamoyl)-3-oxo-2,3-dihydro-1H-inden-5-yl)carbamoyl)-4′-methoxy-[1,1′-biphenyl]-3-carboxylic acid]"
3,2700,"COc1ccc(-c2cc(C(=O)O)ccc2F)cc1C(=O)Nc1cc2c(cc1C(=O)Nc1ccc(F)c(C(F)(F)F)c1)CCC2O (racemic) [Example 29, 6-fluoro-3′-((6-((4-fluoro-3-(trifluoromethyl)phenyl)carbamoyl)-3-hydroxy-2,3-dihydro-1H-inden-5-yl)carbamoyl)-4′-methoxy-[1,1′-biphenyl]-3-carboxylic acid]"

# Reference: US20260265208A1, “TETRALINE, PHENYLCYCLOBUTANE AND PHENYLCYCLOPENTANE ANALOGS AS RXFP1 AGONISTS” (BRISTOL-MYERS SQUIBB COMPANY, priority 2021, published 2026)
